In brackets after ≈: the same amount, converted by molar mass. Activity calls are given as the source filed them. The calls are words filed in the database; no cut-off is given here.

Six molecules from ChEMBL document CHEMBL1275423 (Antimicrob Agents Chemother, 2008) can be followed below.

Holding throughout (type): functional, organism-based
Assay [1] deals with Bacillus anthracis. Description: Antimicrobial activity against Bacillus anthracis MurA1 AS clone 2G2 assessed as growth inhibition in presence of xylose by antisense-induced hypersensitive testing.
The subject of assay [2] is Bacillus anthracis. Briefly: Antimicrobial activity against Bacillus anthracis MurA1 AS clone 2G2 assessed as growth inhibition in absence of xylose by antisense-induced hypersensitive testing.
Assay [3] deals with Bacillus anthracis. Briefly: Antimicrobial activity against Bacillus anthracis metRS1 AS 1H1 assessed as growth inhibition in presence of xylose by antisense-induced hypersensitive testing.
Where [4] appears, read: Bacillus anthracis, MurA1 AS clone 2G2, read-out: IC50.

Turning to `CCN1CCN(C(=O)N[C@@H](C(=O)N[C@@H]2C(=O)N3[C@@H]2SC(C)(C)[C@@H]3C(=O)O)c2ccccc2)C(=O)C1=O`, the inhibition entry in the assay with Bacillus anthracis [1] is “Active”.
The IC50 is the concentration that inhibits the measured activity by half. With `C[C@@H]1O[C@@H]1P(=O)(O)O` [FOSFOMYCIN], the IC50 with Bacillus anthracis [2] (setting [4]) turned out to be 126 µg/mL (≈ 913 µM); in the assay with Bacillus anthracis [1] (setting [4]), 18 µg/mL.
Consider `CN(C)[C@@H]1C(O)=C(C(N)=O)C(=O)[C@@]2(O)C(O)=C3C(=O)c4c(O)cccc4[C@@](C)(O)[C@H]3C[C@@H]12` [TETRACYCLINE], for which the concentration for half-maximal inhibition (IC50) result with Bacillus anthracis [2] and with Bacillus anthracis [1] was “Not Active” each time.
For `Cc1onc(-c2ccccc2)c1C(=O)N[C@@H]1C(=O)N2[C@@H]1SC(C)(C)[C@@H]2C(=O)O`, in the assay with Bacillus anthracis [1], the inhibition result is “Active”.
Turning to `CN[C@H](CC(C)C)C(=O)N[C@H]1C(=O)N[C@@H](CC(N)=O)C(=O)N[C@H]2C(=O)N[C@H]3C(=O)N[C@H](C(=O)N[C@H](C(=O)O)c4cc(O)cc(O)c4-c4cc3ccc4O)[C@H](O)c3ccc(c(Cl)c3)Oc3cc2cc(c3O[C@@H]2O[C@H](CO)[C@@H](O)[C@H](O)[C@H]2O[C@H]2C[C@](C)(N)[C@H](O)[C@H](C)O2)Oc2ccc(cc2Cl)[C@H]1O`, the inhibition entry in the assay on Bacillus anthracis [1] is “Active”.
Take `O=C(O)c1ccc(OCc2nc3ccccc3[nH]2)c(OCc2ccc(Cl)cc2Cl)c1`: the inhibition entry in the assay with Bacillus anthracis [3] is “Active”.
